{
  "source": "patent US9204639B2",
  "about": "“Pesticide preparation and process for producing the same” (BAYER INTELLECTUAL PROPERTY GMBH, priority 2011, dated 2015)",
  "key": {"[1]": {"conditions": "cited from earlier work"}, "[2]": {"format": "physicochemical", "method": "To 31.0 g of tefuryltrione and 11.5 g of diphenylamine (equivalent mol to tefuryltrione), 10 mL of toluene was added and refluxed under heating at 90° C. for 1 hour. […] The melting point of the obtained compound was measured using a DSC (Differential Scanning calorimetry) and compared with those of the starting materials (Table 1).\nThe solubilities of the pesticide active ingredients in toluene and a toluene/isooctane mixture liquid (80/20, v/v) at room temperature were determined (Table 2)."}},
  "data": [
    {"smiles": "c1ccc(-c2ccccc2)cc1", "note": "[biphenyl]", "values": [
      {"measurement": "Water solubility", "setting": "[1]", "result": 7, "unit": "ppm"}
    ]},
    {"smiles": "CS(=O)(=O)c1ccc(C(=O)C2C(=O)CCCC2=O)c(Cl)c1COCC1CCCO1", "note": "(stereo not shown) [Tefuryltrione, tefuryltrione]", "values": [
      {"measurement": "Solubility, Toluene", "setting": "[2]", "result": 97.8, "unit": "mg/mL"},
      {"measurement": "Solubility, Toluene/isooctane mixture liquid (80/20, v/v)", "setting": "[2]", "result": 49.4, "unit": "mg/mL"}
    ]},
    {"smiles": "c1ccc(C(c2ccccc2)c2ccccc2)cc1", "note": "[triphenylmethane]", "values": [
      {"measurement": "Water solubility (in words)", "setting": "[1]", "result": "water insoluble"}
    ]}
  ]
}
